# Laboratory results published in patent publication US9187465B2, “Oxazole tyrosine kinase inhibitors” (Sareum Limited, priority 2007, dated 2015).
# Structures can show the parent of a compound that is named as a salt.
# Assays:
# Type in all cases: biochemical
# [1] = target: T1, human FLT3 (Homo sapiens, UniProt P36888); assay: FLT3 kinase assay (DELFIA enzyme inhibition)
# T1 construct: a construct expressing the human FLT3 (564-993) with an amino terminal GST tag; host or cells: Sf9 insect cells (baculovirus)
# T1 sequence (P36888 564-993): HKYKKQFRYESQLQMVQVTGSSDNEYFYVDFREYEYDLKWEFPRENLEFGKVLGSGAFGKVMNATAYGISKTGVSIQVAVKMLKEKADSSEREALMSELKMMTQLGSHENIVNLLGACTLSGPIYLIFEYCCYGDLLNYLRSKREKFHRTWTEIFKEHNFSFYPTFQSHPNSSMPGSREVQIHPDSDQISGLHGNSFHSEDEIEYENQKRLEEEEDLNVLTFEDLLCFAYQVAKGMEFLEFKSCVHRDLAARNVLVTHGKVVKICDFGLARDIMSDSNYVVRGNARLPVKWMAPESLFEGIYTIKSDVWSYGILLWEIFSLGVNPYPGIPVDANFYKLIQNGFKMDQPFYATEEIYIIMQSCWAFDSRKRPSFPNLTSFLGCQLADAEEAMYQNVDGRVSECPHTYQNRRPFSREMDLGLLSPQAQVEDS
# Method: A GST-kinase fusion protein of 70 KDa was produced using sf9 baculovirus expression system, with a construct expressing the human FLT3 (564-993) with an amino terminal GST tag. The protein was purified by one-step affinity chromatography using glutathione-agarose.
# FLT3 enzyme activity is determined using a Dissociation Enhanced Lanthanide Fluorescent Immunoassay (DELFIA) with a peptide substrate derived from the Gastrin Precursor (Tyr 87) peptide […] with a core sequence: EAYGW.
# The amount of phosphorylated peptide produced is detected by means of a phospho-Tyrosine specific Europium-labelled antibody using Time-Resolved Fluorescence at Excitation 360-35 nm and Emission 620-35 nm.
# Assay reactions are set up in a 25 uL final volume on a 96 well plate. […] The reaction is allowed to proceed for 30 minutes at room temperature before stopping with 100 μL Stop solution comprising of 100 mM EDTA, 1×BSA blocker in TBS (Perbio) and 0.05% Surfact-Amps20 (Perbio).
# The stopped reaction is transferred to a black 96-well Neutravidin-coated plate (Perbio) and incubated for 30 minutes to capture the biotinylated peptide substrate. After washing wells 3 times with 200 uL TBS/T buffer, Anti-Phospho-Tyr-100 antibody labelled with Eu—N1 (Perkin Elmer AD0159) is added to all wells for 60 minutes at room temperature. After a repeat washing step, DELFIA Enhancement solution (Perkin Elmer) is added to all wells for 5 minutes and the fluorescence measured on a plate reader Analyst HT (Molecular Devices).
# The % inhibition of the activity is calculated and plotted in order to determine the concentration of test compound required to inhibit 50% of the enzyme activity (IC50).
# [2] = target: T2, human FLT4 (Homo sapiens, UniProt P35916); assay: FLT4 kinase assay (DELFIA enzyme inhibition); conditions: read-out: FLT4 IC50
# T2 construct: a construct expressing the human FLT4 (789-1207) with an amino terminal GST tag; host or cells: Sf9 insect cells (baculovirus)
# Method in brief: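 Read-out is DELFIA: biotinylated MET Tyr1253-derived peptide captured on Neutravidin, phosphotyrosine detected by Eu-antibody time-resolved fluorescence. Enzyme is Sf9-expressed GST-FLT4 (789-1207), reacting 30 min at room temperature before EDTA stop. IC50 derived from plotted % inhibition.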
# [3] = target: T3, human Aurora A (Homo sapiens, UniProt O14965); assay: Aurora A kinase assay (DELFIA enzyme inhibition); conditions: read-out: Aurora A IC50
# T3 construct: Histidine tag (N); host or cells: Sf9 insect cells (baculovirus)
# T3 sequence (O14965 1-403): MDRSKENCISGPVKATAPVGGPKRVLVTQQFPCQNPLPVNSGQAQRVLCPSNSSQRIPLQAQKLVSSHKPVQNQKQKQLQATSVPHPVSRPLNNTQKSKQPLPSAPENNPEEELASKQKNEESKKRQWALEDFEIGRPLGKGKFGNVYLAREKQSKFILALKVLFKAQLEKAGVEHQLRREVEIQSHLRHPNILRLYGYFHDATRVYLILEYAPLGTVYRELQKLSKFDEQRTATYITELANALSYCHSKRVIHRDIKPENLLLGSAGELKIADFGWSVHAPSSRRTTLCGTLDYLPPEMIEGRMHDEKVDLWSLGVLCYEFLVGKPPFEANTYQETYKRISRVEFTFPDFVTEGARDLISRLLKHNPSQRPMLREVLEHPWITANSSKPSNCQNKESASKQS
# Method in brief: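 DELFIA read-out (time-resolved Eu fluorescence, 620 nm emission) after Neutravidin capture of biotinylated peptide substrate and antibody detection. Reaction: Ni-agarose-purified Aurora A, 30 min at room temperature, stopped with 100 mM EDTA.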
# T2 sequence (P35916 789-1207): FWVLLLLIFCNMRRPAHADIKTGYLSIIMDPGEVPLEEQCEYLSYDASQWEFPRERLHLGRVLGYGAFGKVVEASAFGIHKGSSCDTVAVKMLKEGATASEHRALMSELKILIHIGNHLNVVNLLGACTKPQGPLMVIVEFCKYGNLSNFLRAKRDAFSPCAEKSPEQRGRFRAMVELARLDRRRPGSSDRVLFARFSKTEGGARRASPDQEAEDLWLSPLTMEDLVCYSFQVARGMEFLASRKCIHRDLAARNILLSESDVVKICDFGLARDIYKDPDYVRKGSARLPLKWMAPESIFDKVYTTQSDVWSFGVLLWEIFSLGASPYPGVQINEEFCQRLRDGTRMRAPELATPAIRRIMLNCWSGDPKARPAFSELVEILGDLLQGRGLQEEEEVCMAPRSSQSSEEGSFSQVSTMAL
Structure (SMILES),IC50 [1],IC50 [2],IC50 [3]
"NC(=O)c1nc(-c2c(F)cccc2F)oc1-c1ccc(CN2CCNCC2)cc1 [Example G-1, 2-(2,6-difluorophenyl)-5-(4-(piperazin-1-ylmethyl)phenyl)oxazole-4-carboxamide]",< 100 µM,< 10 µM,< 10 µM
"NC(=O)c1nc(-c2c(F)cccc2F)oc1-c1ccc(N2CCNCC2)nc1 [Example G-2, 2-(2,6-difluorophenyl)-5-(6-(piperazin-1-yl)pyridin-3-yl)oxazole-4-carboxamide dihydrochloride]",< 10 µM,< 10 µM,< 10 µM
"NC(=O)c1nc(-c2ccccc2F)oc1-c1ccc(N2CCNCC2)cc1 [Example G-4, 2-(2-fluorophenyl)-5-(4-(piperazin-1-yl)phenyl)oxazole-4-carboxamide]",< 10 µM,< 10 µM,< 10 µM
"CN1CCN(c2ccc(-c3oc(-c4c(F)cccc4F)nc3C(N)=O)cc2)CC1 [Example H-1, 2-(2,6-difluorophenyl)-5-(4-(4-methylpiperazin-1-yl)phenyl)oxazole-4-carboxamide]",< 10 µM,< 10 µM,< 10 µM
"CN1CCN(c2ccc(-c3oc(-c4c(F)cccc4F)nc3C(N)=O)cn2)CC1 [Example H-2, 2-(2,6-difluorophenyl)-5-(6-(4-methylpiperazin-1-yl)pyridin-3-yl)oxazole-4-carboxamide]",< 10 µM,< 10 µM,< 10 µM
"CC(=O)N1CCN(c2ccc(-c3oc(-c4c(F)cccc4F)nc3C(N)=O)cc2)CC1 [Example I-1, 5-(4-(4-acetylpiperazin-1-yl)phenyl)-2-(2,6-difluorophenyl)oxazole-4-carboxamide]",< 10 µM,< 10 µM,< 10 µM
"CC(=O)N1CCN(c2ccc(-c3oc(-c4c(F)cccc4F)nc3C(N)=O)cn2)CC1 [Example I-2, 5-(6-(4-acetylpiperazin-1-yl)pyridin-3-yl)-2-(2,6-difluorophenyl)oxazole-4-carboxamide]",< 10 µM,< 10 µM,< 10 µM
"CNC(=O)N1CCN(c2ccc(-c3oc(-c4c(F)cccc4F)nc3C(N)=O)cc2)CC1 [Example J-1, 4-(4-(4-carbamoyl-2-(2,6-difluorophenyl)oxazol-5-yl)phenyl)-N-methylpiperazine-1-carboxamide]",< 10 µM,< 10 µM,< 10 µM
"CNC(=O)N1CCN(c2ccc(-c3oc(-c4c(F)cccc4F)nc3C(N)=O)cn2)CC1 [Example J-2, 4-(5-(4-carbamoyl-2-(2,6-difluorophenyl)oxazol-5-yl)pyridin-2-yl)-N-methylpiperazine-1-carboxamide]",< 10 µM,< 10 µM,< 10 µM
"COc1ccc(-c2oc(-c3ccccc3F)nc2C(N)=O)cc1 [Example M-3, 2-(2-fluorophenyl)-5-(4-methoxyphenyl)oxazole-4-carboxamide]",< 100 µM,< 10 µM,< 100 µM
"COc1ccc(-c2oc(-c3cccc4[nH]ccc34)nc2C(N)=O)cc1 [Example M-4, 2-(1H-indol-4-yl)-5-(4-methoxyphenyl)oxazole-4-carboxamide]",< 10 µM,< 10 µM,< 100 µM
"COc1ccc(-c2oc(-c3cn[nH]c3)nc2C(N)=O)cc1 [Example N-2, 5-(4-methoxyphenyl)-2-(1H-pyrazol-4-yl)oxazole-4-carboxamide]",< 100 µM,< 10 µM,< 10 µM
"COc1ccc(-c2oc(-c3cccc(C(F)(F)F)c3F)nc2C(N)=O)cc1 [Example N-7, 2-(2-fluoro-3-(trifluoromethyl)phenyl)-5-(4-methoxyphenyl)oxazole-4-carboxamide]",< 100 µM,< 100 µM,< 100 µM
"NC(=O)c1nc(-c2c(F)cccc2F)oc1Nc1cccc(N2CCOCC2)c1 [Example Q-2, 2-(2,6-difluorophenyl)-5-(3-morpholinophenylamino)oxazole-4-carboxamide]",< 10 µM,< 10 µM,< 10 µM
"NC(=O)c1nc(-c2c(F)cccc2F)oc1Nc1cccc(OCCN2CCOCC2)c1 [Example Q-10, 2-(2,6-difluorophenyl)-5-(3-(2-morpholinoethoxy)phenylamino)oxazole-4-carboxamide]",< 10 µM,< 10 µM,< 10 µM
"NC(=O)c1nc(-c2c(F)cccc2F)oc1Nc1cccc(N2CCNCC2)c1 [Example Q-12, 2-(2,6-difluorophenyl)-5-(3-(piperazin-1-yl)phenylamino)oxazole-4-carboxamide formate salt]",< 10 µM,< 10 µM,< 10 µM
"NC(=O)c1nc(-c2c(F)cccc2F)oc1Nc1ccc(N2CCCCC2)cc1 [Example Q-13, 2-(2,6-difluorophenyl)-5-(4-(piperidin-1-yl)phenylamino)oxazole-4-carboxamide]",< 10 µM,< 10 µM,< 100 µM
"NC(=O)c1nc(-c2c(F)cccc2F)oc1Nc1ccc(N2CCCNCC2)cc1 [Example Q-15, 5-(4-(1,4-diazepan-1-yl)phenylamino)-2-(2,6-difluorophenyl)oxazole-4-carboxamide]",< 10 µM,< 10 µM,< 10 µM
"NC(=O)c1nc(-c2c(F)cccc2F)oc1Nc1ccc(OC2CCNCC2)cc1 [Example Q-16, 2-(2,6-difluorophenyl)-5-(4-(piperidin-4-yloxy)phenylamino)oxazole-4-carboxamide]",< 10 µM,< 10 µM,< 10 µM
"NC(=O)c1nc(-c2c(F)cccc2F)oc1Nc1ccc(N2CCNC(=O)C2)cc1 [Example Q-19, 2-(2,6-difluorophenyl)-5-(4-(3-oxopiperazin-1-yl)phenylamino)oxazole-4-carboxamide]",< 10 µM,< 10 µM,< 10 µM
"CN(C)C(=O)c1ccc(Nc2oc(-c3c(F)cccc3F)nc2C(N)=O)cc1 [Example Q-20, 2-(2,6-difluorophenyl)-5-(4-(dimethylcarbamoyl)phenylamino)oxazole-4-carboxamide]",< 10 µM,< 10 µM,< 10 µM
"NC(=O)c1nc(-c2c(F)cccc2F)oc1Nc1ccc(C(=O)N2CCCCC2)cc1 [Example Q-21, 2-(2,6-difluorophenyl)-5-(4-(piperidine-1-carbonyl)phenylamino)oxazole-4-carboxamide]",< 10 µM,< 10 µM,< 10 µM
"NC(=O)c1nc(-c2c(F)cccc2F)oc1Nc1ccc(C(=O)N2CCNCC2)cc1 [Example Q-22, 2-(2,6-difluorophenyl)-5-(4-(piperazine-1-carbonyl)phenylamino)oxazole-4-carboxamide]",< 10 µM,< 10 µM,< 10 µM
"NC(=O)c1nc(-c2ccccc2F)oc1Nc1ccc(N2CCOCC2)cc1 [Example Q-23, 2-(2-Fluorophenyl)-5-(4-morpholinophenylamino)oxazole-4-carboxamide]",< 10 µM,< 10 µM,< 10 µM
